Data on eleven molecules can be found in patent US4148996A, “3,7-Disubstituted cephalosporins” (Societa Farmaceutici Italia S.p.A., priority 1976, dated 1979).

Molecules are shown by their SMILES. Values after ≈ are worked out from the molar mass of the structure shown. Like-named read-outs stand apart in the source and are kept apart here.

The test system of experiment [1] is S.aureus. Put plainly: in vitro MIC by serial dilution, S.aureus. It is filed as cell-based, Staphylococcus aureus. Particulars: for MIC: Staphylococcus aureus, read-out: MIC (minimal inhibitory concentration); for antistaphylococcal activity: in words, compared with cephazolin and cephalothin. Here is the method:
(§1) A series of comparative tests was carried out in vitro with the method of serial dilutions in Penassay Seed Broth Difco inoculated with 10^4 bacteria/ml (overnight cultures).
(§2) Table 1 below reports the results of the above assays as MIC (minimal inhibitory concentration, mcg/ml).

Experiment [2] deals with S.pyogenes. Put plainly: in vitro MIC by serial dilution, S.pyogenes. The class given is cell-based. The note with it: Streptococcus pyogenes; S.pyogenes; serial dilutions in Penassay Seed Broth Difco, 10^4 bacteria/ml; read-out: MIC (minimal inhibitory concentration). As to the method:
as §1, §2

The subject of experiment [3] is E.coli B. Description: in vitro MIC by serial dilution, E.coli B. It is filed as cell-based. The note with it: Escherichia coli, read-out: MIC (minimal inhibitory concentration). Here is the method: as §1, §2
The subject of experiment [4] is K.pneumoniae. Description: in vitro MIC by serial dilution, K.pneumoniae. It is filed as cell-based. The note with it: Klebsiella pneumoniae; K.pneumoniae; serial dilutions in Penassay Seed Broth Difco, 10^4 bacteria/ml; read-out: MIC (minimal inhibitory concentration). As to the method:
as §1, §2

Experiment [5] has as its system S.flexneri. Put plainly: in vitro MIC by serial dilution, S.flexneri. The class given is cell-based. The note with it: Shigella flexneri, read-out: MIC (minimal inhibitory concentration). Here is the method:
as §1, §2

Experiment [6] deals with S.abortivoequina. Put plainly: in vitro MIC by serial dilution, S.abortivoequina. It is filed as cell-based. Particulars: Salmonella, read-out: MIC (minimal inhibitory concentration). As to the method:
as §1, §2

Experiment [7] concerns P.mirabilis. Description: in vitro MIC by serial dilution, P.mirabilis. It is filed as cell-based. The note with it: Proteus mirabilis; P.mirabilis; serial dilutions in Penassay Seed Broth Difco, 10^4 bacteria/ml; read-out: MIC (minimal inhibitory concentration). As to the method:
as §1, §2

In experiment [8] the test system is Staphylococcus aureus. Description: in vivo therapeutic activity on mice experimentally infected with Staphylococcus aureus. On the set-up: species or system male Swiss Cobs albino mice. The note with it: for ED50: Staphylococcus aureus, sc, 168 h, Table 2, 2 LD50/mouse i.p., subcutaneous treatment 4 h after infection, 7 days, read-out: ED50 (dose effective in curing 50% of the infected mice); for effectiveness on experimental staphylococcal infections: in words, compared with cephazolin and cephalothin. Here is the method:
In vivo tests for therapeutic activity were carried out on mice experimentally infected with Staphylococcus aureus and Salmonella abortivoequina (Infective dose: 2 LD50 /mouse i.p.); groups of 6 male Swiss Cobs albino mice were used. The infected animals were treated by the subcutaneous route 4 h after infection. The mortality rate was recorded every day for 7 days. The activity was assessed as ED50 (Dose effective in curing 50% of the infected mice as mg/Kg--see Reed and Muench, Am. J. Hyg. 27, 493, 1938.)

Experiment [9] deals with S.typhimurium. Put plainly: in vitro MIC by serial dilution, S.typhimurium. The note with it: Salmonella enterica, read-out: MIC (minimal inhibitory concentration). The class given is cell-based. Here is the method: as §1, §2
[10] abbreviates: S.aureus, serial dilutions in Penassay Seed Broth Difco, 10^4 bacteria/ml.
[11] abbreviates: E.coli B, serial dilutions in Penassay Seed Broth Difco, 10^4 bacteria/ml.
Setting [12] is: S.flexneri, serial dilutions in Penassay Seed Broth Difco, 10^4 bacteria/ml.
The mark [13] stands for this setting: S.abortivoequina, serial dilutions in Penassay Seed Broth Difco, 10^4 bacteria/ml.
[14] abbreviates: S.typhimurium, serial dilutions in Penassay Seed Broth Difco, 10^4 bacteria/ml.

In the case of `O=C(Cc1ccccc1)NC1C(=O)N2C(C(=O)O)=C(CSc3c[n+]([O-])ccn3)CSC12` (centres unmarked) [356/307, 7-phenylacetamido-3-(pyrazin-2-ylthiomethyl-4-oxide)-3-cephem-4-carboxylicacid], the MIC in experiment [1] (setting [10]) is 0.012 µg/mL (≈ 0.0262 µM); in experiment [2] it was 1.5 µg/mL (≈ 3.27 µM); in [3] (setting [11]) it was 6 µg/mL (≈ 13.1 µM); in experiment [4], 1.5 µg/mL (≈ 3.27 µM); in experiment [5] (setting [12]), 12.5 µg/mL (≈ 27.3 µM); in experiment [6] (setting [13]), 25 µg/mL (≈ 54.5 µM). The antistaphylococcal activity entry in [1] is given as “excellent antistaphylococcal activity, clearly superior to that of known cephalosporins”.
Take `O=C(Cc1ccccc1)NC1C(=O)N2C(C(=O)O)=C(CSc3cnccn3)CS[C@H]12` (some centres unmarked) [Compound 308, 7-phenylacetamido-3-pyrazinylthiomethyl-3-cephem-4-carboxylic acid]: the MIC was 0.012 µg/mL (≈ 0.0271 µM) in [1] (setting [10]); 1.5 µg/mL (≈ 3.39 µM) in [2]; 1 to 2 µg/mL (≈ 2.26 to 4.52 µM) in experiment [3] (setting [11]); 0.75 µg/mL (≈ 1.69 µM) in [4]; 50 µg/mL (≈ 113 µM) in [5] (setting [12]); 50 µg/mL (≈ 113 µM) in experiment [7]. The MIC in experiment [6] (setting [13]) worked out at 100 µg/mL (≈ 226 µM). Also, the antistaphylococcal activity result in [1] is “excellent antistaphylococcal activity, clearly superior to that of known cephalosporins”. Besides, the ED50 in [8] is 17.5 mg/kg. Moreover, the “effectiveness on experimental staphylococcal infections” value (shortened to “effectiveness”) in experiment [8] was “more effective than cephazolin and cephalothin”.
Take `O=C(Cc1ccccc1)NC1C(=O)N2C(C(=O)O)=C(CSc3cncc(Cl)n3)CSC12` (centres unmarked) [Compound 310, 7-phenylacetamido-3-(6-chlorpyrazin-2-ylthiomethyl)-3-cephem-4-carboxylic acid]: the MIC in experiment [1] (setting [10]) is 0.06 µg/mL (≈ 0.126 µM); in experiment [2], 6.2 µg/mL (≈ 13 µM); in [3] (setting [11]) it was 0.6 µg/mL (≈ 1.26 µM); in [4], 0.1 µg/mL (≈ 0.21 µM); in [5] (setting [12]), over 50 µg/mL; in experiment [6] (setting [13]), 50 µg/mL (≈ 105 µM). Further, the antistaphylococcal activity result in experiment [1] is reported as “excellent antistaphylococcal activity, clearly superior to that of known cephalosporins”. For the same molecule, in experiment [8], the ED50 was determined as 35 mg/kg.
`NC(=O)c1cncc(SCC2=C(C(=O)O)N3C(=O)C(NC(=O)Cc4ccccc4)C3SC2)n1` (centres unmarked) [Compound 311, 7-phenylacetamido-3-(6-carboxamidopyrazin-2-ylthiomethyl)-3-cephem-4-carboxylic acid]: the MIC in [1] (setting [10]) was 0.06 µg/mL (≈ 0.124 µM); in experiment [2] it was 1.5 µg/mL (≈ 3.09 µM); in experiment [3] (setting [11]), 5 µg/mL (≈ 10.3 µM); in experiment [4], 1.5 to 2.5 µg/mL (≈ 3.09 to 5.15 µM); in [5] (setting [12]), 12.5 µg/mL (≈ 25.7 µM); in experiment [7], over 50 µg/mL. In addition, the MIC in experiment [6] (setting [13]) was over 50 µg/mL. Further, the ED50 in experiment [8] was determined as 17.5 mg/kg. In experiment [8], the “effectiveness” value is “more effective than cephazolin and cephalothin”.
As to `CC(=O)OCC1=C(C(=O)O)N2C(=O)C(NC(=O)CSc3cnccn3)C2SC1` (centres unmarked) [Compound 312, 7-pyrazinylthioacetamidocephalosporanic acid], the MIC in experiment [1] was determined as 0.12 µg/mL (≈ 0.283 µM); in [2], 3.1 µg/mL (≈ 7.3 µM); in [3], 5 µg/mL (≈ 11.8 µM); in experiment [4] it was 1.5 µg/mL (≈ 3.53 µM); in experiment [5], 12.5 µg/mL (≈ 29.4 µM); in experiment [6] (setting [13]), 25 µg/mL (≈ 58.9 µM). The ED50 in [8] came to 40 mg/kg.
For `NC(=O)c1cncc(SCC2=C(C(=O)O)N3C(=O)C(NC(=O)Cc4cccs4)C3SC2)n1` (centres unmarked) [Compound 313, 7-(2-thienyl)-acetamido-3-(6-carboxamidopyrazin-2-ylthiomethyl)-3-cephem-4-carboxylic acid], the MIC in experiment [1] (setting [10]) amounted to 0.012 µg/mL (≈ 0.0244 µM); in [2], 1.25 µg/mL (≈ 2.54 µM); in [3] (setting [11]) it was 2.5 µg/mL (≈ 5.09 µM); in [4] it was 1.25 µg/mL (≈ 2.54 µM); in experiment [5] (setting [12]) it was 6.25 µg/mL (≈ 12.7 µM); in [7] it was 50 µg/mL (≈ 102 µM). Further, the MIC is 6.25 µg/mL (≈ 12.7 µM) in experiment [6] and 12.5 µg/mL (≈ 25.4 µM) in [9] (setting [14]). The antistaphylococcal activity result in experiment [1] was “excellent antistaphylococcal activity, clearly superior to that of known cephalosporins”. The ED50 in experiment [8] was 20 mg/kg. Also, the “effectiveness” value in experiment [8] is “more effective than cephazolin and cephalothin”.
Take `O=C(Cc1cccs1)NC1C(=O)N2C(C(=O)O)=C(CSc3cnccn3)CSC12` (centres unmarked) [Compound 314, 7-(2-thienyl)-acetamido-3-pyrazinylthiomethyl-3-cephem-4-carboxylic acid]: the MIC came out at 0.003 µg/mL (≈ 0.00669 µM) in [1] (setting [10]); 1.25 µg/mL (≈ 2.79 µM) in [2]; 0.6 µg/mL (≈ 1.34 µM) in experiment [3] (setting [11]); 0.6 µg/mL (≈ 1.34 µM) in [4]; 6.25 µg/mL (≈ 13.9 µM) in experiment [5] (setting [12]); 25 µg/mL (≈ 55.7 µM) in [7]. For the same molecule, the MIC in [6] and in experiment [9] (TYPHIMURIUM) was 6.25 µg/mL (≈ 13.9 µM) throughout. Also, the ED50 in experiment [8] came to 20 mg/kg.
In the case of `O=C(CSc1cnccn1)NC1C(=O)N2C(C(=O)O)=C(CSc3cncc(Cl)n3)CSC12` (centres unmarked) [Compound 315, 7-pyrazinylthioacetamido-3-(6-chloropyrazin-2-ylthiomethyl)-3-cephem-4-carboxylic acid], the MIC in experiment [1] (setting [10]) is 0.006 µg/mL (≈ 0.0117 µM); in experiment [2], 1.25 µg/mL (≈ 2.45 µM); in experiment [3] (setting [11]), 2.5 µg/mL (≈ 4.89 µM); in experiment [4], 1.25 µg/mL (≈ 2.45 µM); in experiment [5] (setting [12]), 50 µg/mL (≈ 97.8 µM); in experiment [7], over 50 µg/mL. The MIC in [6] (setting [13]) and in [9] (setting [14]) was over 50 µg/mL each time. Besides, the antistaphylococcal activity entry in [1] is reported as “excellent antistaphylococcal activity, clearly superior to that of known cephalosporins”. The ED50 in experiment [8] worked out at 40 mg/kg.
As for `O=C(CSc1cnccn1)NC1C(=O)N2C(C(=O)O)=C(CSc3c[n+]([O-])ccn3)CSC12` (centres unmarked) [Compound 316, 7-pyrazinylthioacetamido-3-(pyrazin-2-ylthiomethyl-4-oxide)-3-cephem-4-carboxylic acid], the MIC was 0.025 µg/mL (≈ 0.0508 µM) in experiment [1] (setting [10]); 2.5 µg/mL (≈ 5.08 µM) in experiment [2]; 5 µg/mL (≈ 10.2 µM) in experiment [3] (setting [11]); 2.5 µg/mL (≈ 5.08 µM) in [4]; 12.5 µg/mL (≈ 25.4 µM) in [5] (setting [12]); over 50 µg/mL in experiment [7]. Besides, the MIC amounted to 12.5 µg/mL (≈ 25.4 µM) in experiment [6] and 50 µg/mL (≈ 102 µM) in experiment [9] (setting [14]). Also, the antistaphylococcal activity entry in [1] was “excellent antistaphylococcal activity, clearly superior to that of known cephalosporins”. In experiment [8], the ED50 is 40 mg/kg.
Consider `COc1nccnc1SCC1=C(C(=O)O)N2C(=O)C(NC(=O)Cc3cccs3)C2SC1` (centres unmarked) [Compound 317, 7-(2-thienyl)-acetamido-3-(3-methoxy-pyrazin-2-ylthiomethyl)-3-cephem-4-carboxylic acid], for which the MIC was 0.005 µg/mL (≈ 0.0104 µM) in experiment [1] (setting [10]); 1.5 µg/mL (≈ 3.13 µM) in [3] (setting [11]); 1.5 µg/mL (≈ 3.13 µM) in experiment [4]; 50 µg/mL (≈ 104 µM) in [5] (setting [12]); 50 µg/mL (≈ 104 µM) in experiment [7]; over 50 µg/mL in experiment [6] (setting [13]). In [9] (setting [14]), the MIC is over 50 µg/mL.
For the molecule `O=C(Cn1cnnn1)NC1C(=O)N2C(C(=O)O)=C(CSc3cnccn3)CSC12` (centres unmarked) [Compound 318, 7-[1-(1H)-tetrazolylacetamido]-3-pyrazinylthiomethyl-3-cephem-4-carboxylic acid], the MIC was determined as 0.097 µg/mL (≈ 0.223 µM) in experiment [1] (setting [10]); 6.25 µg/mL (≈ 14.4 µM) in experiment [3] (setting [11]); 3.1 µg/mL (≈ 7.14 µM) in [4]; 3.1 µg/mL (≈ 7.14 µM) in experiment [5] (setting [12]); 12.5 µg/mL (≈ 28.8 µM) in experiment [7]; 3.1 µg/mL (≈ 7.14 µM) in [6] (setting [13]). In experiment [9] (setting [14]), the MIC worked out at 12.5 µg/mL (≈ 28.8 µM).
